Here are results for 17 molecules from patent publication US20250340538A1, “IMIDAZOLONE DERIVATIVES AS INHIBITORS OF PROTEIN KINASES IN PARTICULAR DYRK1A, CLK1 AND/OR CLK4” (PERHA PHARMACEUTICALS, priority 2021, published 2025).

For one test, the target named is T1, DYRK1A (Homo sapiens, UniProt Q13627).
T1 construct: GST-fusion or His-tag (not specified per kinase); purchased ProQinase GmbH; host or cells: Sf9 insect cells or E. coli (not specified per kinase)
Nature of the test: Radiometric protein kinase assay (33PanQinase Activity Assay), DYRK1A. The test is classed as biochemical. Conditions: for IC50: class by IC50 on DYRK1A, from dose-response curves, read-out: Potency Class DYRK1A; for Selectivity Class DYRK1A vs. CLK1: ratio of IC50 on CLK1 over IC50 on DYRK1A; for Selectivity Class DYRK1A vs. DYRK1B: ratio of IC50 on DYRK1B over IC50 on DYRK1A. As for the experimental part:
The IC50 profile of all compounds was determined using 12 protein kinases (CDK2/cyclin E, CK1ε, CLK1, 2, 3, 4, DYRK1A, 1B, 2, 3, 4, GSK3β).
(§1) The compounds were provided as […] in 100% DMSO. Prior to testing, the 1 μM stock solutions were subjected to a serial, semi-logarithmic dilution using 100% DMSO as a solvent. […] In the process, 90 μl H2O were added to each well of each compound dilution plate. To minimize potential precipitation, the H2O was added to each plate only a few minutes before the transfer of the compound solutions into the assay plates. The plate was shaken thoroughly, resulting in a compound dilution plate/10% DMSO.
(§2) For the assays (see below), 5 μL solution from each well of the compound dilution plates/10% DMSO were transferred into the assay plates. The final volume of the assay was 50 μL. All compounds were tested at 10 final assay concentrations in the range from 10 μM to 30 nM. The final DMSO concentration in the reaction cocktails was 1% in all cases.
(§3) All protein kinases provided by ProQinase were expressed in Sf9 insect cells or in E. coli as recombinant GST-fusion proteins or His-tagged proteins, either as full-length or enzymatically active fragments. All kinases were produced from human cDNAs and purified by either GSH-affinity chromatography or immobilized metal. Affinity tags were removed from a number of kinases during purification. The purity of the protein kinases was examined by SDS-PAGE/Coomassie staining, the identity was checked by mass spectroscopy.
(§4) A radiometric protein kinase assay (33PanQinase® Activity Assay) was used for measuring the kinase activity of the 12 protein kinases. All kinase assays were performed in 96-well FlashPlates™ from PerkinElmer (Boston, MA, USA) in a 50 μL reaction volume. The reaction cocktail was pipetted in four steps in the following order: • 25 μL of assay buffer (standard buffer/[γ-^33P]-ATP), • 10 μL of ATP solution (in H2O), • 5 μL of test compound (in 10% DMSO), • 10 μL of enzyme/substrate mixture.
(§5) The reaction cocktails were incubated at 30° C. for 60 minutes. The reaction was stopped with 50 μL of 2% (v/v) H3PO4, plates were aspirated and washed two times with 200 μL 0.9% (w/v) NaCl. Incorporation of ^33Pi was determined with a microplate scintillation counter (Microbeta, Wallac). The IC50 values for all compounds were calculated from the dose response curves

The target of a further test is T2, CLK1 (Homo sapiens, UniProt P49759).
T2 construct: GST-fusion or His-tag (not specified per kinase); purchased ProQinase GmbH; host or cells: Sf9 insect cells or E. coli (not specified per kinase)
T2 sequence (P49759 whole entry, the tested form may be a part): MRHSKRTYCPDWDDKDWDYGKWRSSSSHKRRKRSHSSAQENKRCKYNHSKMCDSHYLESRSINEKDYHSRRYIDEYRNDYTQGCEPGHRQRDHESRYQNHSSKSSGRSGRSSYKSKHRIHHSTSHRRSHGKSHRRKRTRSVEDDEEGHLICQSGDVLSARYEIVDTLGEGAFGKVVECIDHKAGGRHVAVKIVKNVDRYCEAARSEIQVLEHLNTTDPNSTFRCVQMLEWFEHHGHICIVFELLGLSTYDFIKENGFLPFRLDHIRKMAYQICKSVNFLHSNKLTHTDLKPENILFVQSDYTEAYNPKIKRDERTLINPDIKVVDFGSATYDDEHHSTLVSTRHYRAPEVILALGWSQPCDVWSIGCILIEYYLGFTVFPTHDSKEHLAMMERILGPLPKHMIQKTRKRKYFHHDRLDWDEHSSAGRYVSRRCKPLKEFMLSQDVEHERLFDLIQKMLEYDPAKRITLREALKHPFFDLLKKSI
Nature of the test: Radiometric protein kinase assay (33PanQinase Activity Assay), CLK1. The test is classed as biochemical. Conditions: class by IC50 on CLK1, from dose-response curves; read-out: Potency Class CLK1. Here is the method: Assays were performed by ProQinase GmbH (Engesserstr. 4, D-79108 Freiburg, Germany. www.proqinase.com). The IC50 profile of all compounds was determined using 12 protein kinases (CDK2/cyclin E, CK1ε, CLK1, 2, 3, 4, DYRK1A, 1B, 2, 3, 4, GSK3β).
as §1, §2, §3, §4, §5
As a parameter for assay quality, the Z′-factor (Zhang et al., J. Biomol. Screen. 2: 67-73, 1999) for the low and high controls of each assay plate (n=8) was used. ProQinase's criterion for repetition of an assay plate is a Z′-factor below 0.4 (Iversen et al., J. Biomol. Screen. 3: 247-252, 2006).

Regarding `O=C1NC(N[C@@H]2CCCOC2)=N/C1=C\c1ccc2nccnc2c1` [Compound 39, (4Z)-4-(quinoxalin-6-ylmethylene)-2-[[(3R)-tetrahydropyran-3-yl]amino]-1H-imidazol-5-one], on DYRK1A, the IC50 lay within 25 to 50 nM; the “Selectivity Class DYRK1A vs. CLK1” value was “III (ratio between 0.5 and 2 fold)”; the “Selectivity Class DYRK1A vs. DYRK1B” value is “II (ratio between 2 and 10 fold)”. The IC50 at CLK1 is greater than 50 nM.

Regarding `O=C1NC(N[C@@H]2COCC[C@H]2O)=N/C1=C\c1ccc2nccnc2c1` [Compound 40, (4Z)-2-[[(3R,4R)-4-Hydroxytetrahydropyran-3-yl]amino]-4-(quinoxalin-6-ylmethylene)-1H-imidazol-5-one], at DYRK1A, the IC50 was greater than 50 nM; the “Selectivity Class DYRK1A vs. CLK1” value was “III (ratio between 0.5 and 2 fold)”; the “Selectivity Class DYRK1A vs. DYRK1B” value is “II (ratio between 2 and 10 fold)”. Besides, the IC50 at CLK1 was greater than 50 nM.

Turning to `O=C1NC(NC2COCCOC2)=N/C1=C\c1ccc2nccnc2c1` [Compound 42, (4Z)-2-(1,4-dioxepan-6-ylamino)-4-(quinoxalin-6-ylmethylene)-1H-imidazol-5-one], at DYRK1A, the IC50 is greater than 50 nM; the “Selectivity Class DYRK1A vs. CLK1” value is “III (ratio between 0.5 and 2 fold)”; the “Selectivity Class DYRK1A vs. DYRK1B” value is “II (ratio between 2 and 10 fold)”. At CLK1, the IC50 is greater than 50 nM.

Take `O=C1NC(NC2CCCCC2)=N/C1=C\c1ccc2ncccc2c1` [Compound 43, (4Z)-2-(Cyclohexylamino)-4-(6-quinolylmethylene)-1H-imidazol-5-one]: at DYRK1A, the IC50 was greater than 50 nM; the “Selectivity Class DYRK1A vs. CLK1” value is “III (ratio between 0.5 and 2 fold)”; the “Selectivity Class DYRK1A vs. DYRK1B” value was “II (ratio between 2 and 10 fold)”. The IC50 on CLK1 was greater than 50 nM.

As for `O=C1NC(NC2CCCCCC2)=N/C1=C\c1ccc2ncccc2c1` [Compound 44, (4Z)-2-(cycloheptylamino)-4-(6-quinolylmethylene)-1H-imidazol-5-one], at DYRK1A, the IC50 was greater than 50 nM; the “Selectivity Class DYRK1A vs. CLK1” value is “III (ratio between 0.5 and 2 fold)”; the “Selectivity Class DYRK1A vs. DYRK1B” value was “II (ratio between 2 and 10 fold)”. In addition, the IC50 on CLK1 is greater than 50 nM.

For the molecule `O=C1NC(NCC2CCCCC2)=N/C1=C\c1ccc2ncccc2c1` [Compound 45, (4Z)-2-(Cyclohexylmethylamino)-4-(6-quinolylmethylene)-1H-imidazol-5-one], on DYRK1A, the IC50 is greater than 50 nM; the “Selectivity Class DYRK1A vs. CLK1” value was “IV (ratio between 0.1 and 0.5 fold)”; the “Selectivity Class DYRK1A vs. DYRK1B” value was “II (ratio between 2 and 10 fold)”. The IC50 at CLK1 is greater than 50 nM.

As to `CC(C)C[C@H](CO)NC1=N/C(=C\c2ccc3ncccc3c2)C(=O)N1` [Compound 46, (4Z)-2-[[(1R)-1-(hydroxymethyl)-3-methyl-butyl]amino]-4-(6-quinolylmethylene)-1H-imidazol-5-one], on DYRK1A, the IC50 lay within 10 to 25 nM; the “Selectivity Class DYRK1A vs. CLK1” value was “II (ratio between 2 and 10 fold)”; the “Selectivity Class DYRK1A vs. DYRK1B” value was “II (ratio between 2 and 10 fold)”. Also, the IC50 on CLK1 was greater than 50 nM.

With `COC[C@@H](CC(C)C)NC1=N/C(=C\c2ccc3ncccc3c2)C(=O)N1` [Compound 47, (4Z)-2-[[(1R)-1-(methoxymethyl)-3-methyl-butyl]amino]-4-(6-quinolylmethylene)-1H-imidazol-5-one], on DYRK1A, the IC50 lay in the range of 25 to 50 nM; the “Selectivity Class DYRK1A vs. CLK1” value is “II (ratio between 2 and 10 fold)”; the “Selectivity Class DYRK1A vs. DYRK1B” value is “II (ratio between 2 and 10 fold)”. For the same molecule, at CLK1, the IC50 is greater than 50 nM.

Turning to `O=C1NC(NCc2ccccc2)=N/C1=C\c1ccc2ncccc2c1` [Compound 51], at DYRK1A, the IC50 is greater than 50 nM; the “Selectivity Class DYRK1A vs. CLK1” value is “IV (ratio between 0.1 and 0.5 fold)”; the “Selectivity Class DYRK1A vs. DYRK1B” value was “II (ratio between 2 and 10 fold)”. Moreover, on CLK1, the IC50 is greater than 50 nM.

Turning to `COC[C@H](NC1=N/C(=C\c2ccc3ncccc3c2)C(=O)N1)c1ccccc1` [Compound 52, (4Z)-2-[[(1R)-2-methoxy-1-phenyl-ethyl]amino]-4-(6-quinolylmethylene)-1H-imidazol-5-one], at DYRK1A, the IC50 was greater than 50 nM; the “Selectivity Class DYRK1A vs. CLK1” value is “III (ratio between 0.5 and 2 fold)”; the “Selectivity Class DYRK1A vs. DYRK1B” value was “II (ratio between 2 and 10 fold)”. The IC50 at CLK1 is greater than 50 nM.

With `Cc1cnc(CNC2=N/C(=C\c3ccc4ncccc4c3)C(=O)N2)cn1` [Compound 53, (4Z)-2-[(5-Methylpyrazin-2-yl)methylamino]-4-(6-quinolylmethylene)-1H-imidazol-5-one], on DYRK1A, the IC50 is greater than 50 nM; the “Selectivity Class DYRK1A vs. CLK1” value was “IV (ratio between 0.1 and 0.5 fold)”; the “Selectivity Class DYRK1A vs. DYRK1B” value was “III (ratio between 0.5 and 2 fold)”. Besides, the IC50 on CLK1 was greater than 50 nM.

`Cn1ccc(NC2=N/C(=C\c3ccc4ncccc4c3)C(=O)N2)n1` [Compound 54, (4Z)-2-[(1-methylpyrazol-3-yl)amino]-4-(6-quinolylmethylene)-1H-imidazol-5-one]: on DYRK1A, the IC50 was greater than 50 nM; the “Selectivity Class DYRK1A vs. CLK1” value is “III (ratio between 0.5 and 2 fold)”; the “Selectivity Class DYRK1A vs. DYRK1B” value was “II (ratio between 2 and 10 fold)”. In addition, on CLK1, the IC50 was greater than 50 nM.

Take `O=C1NC(N[C@@H]2CCOC2)=N/C1=C\c1ccc2ncccc2c1` [Compound 55, (4Z)-4-(6-Quinolylmethylene)-2-[[(3R)-tetrahydrofuran-3-yl]amino]-1H-imidazol-5-one]: at DYRK1A, the IC50 is greater than 50 nM; the “Selectivity Class DYRK1A vs. CLK1” value is “III (ratio between 0.5 and 2 fold)”; the “Selectivity Class DYRK1A vs. DYRK1B” value is “III (ratio between 0.5 and 2 fold)”. The IC50 on CLK1 is greater than 50 nM.

As for `O=C1NC(N[C@@H]2CCCOC2)=N/C1=C\c1ccc2ncccc2c1` [Compound 56, (4Z)-4-(6-quinolylmethylene)-2-[[(3R)-tetrahydropyran-3-yl]amino]-1H-imidazol-5-one], on DYRK1A, the IC50 was greater than 50 nM; the “Selectivity Class DYRK1A vs. CLK1” value was “III (ratio between 0.5 and 2 fold)”; the “Selectivity Class DYRK1A vs. DYRK1B” value was “II (ratio between 2 and 10 fold)”. Besides, the IC50 on CLK1 was greater than 50 nM.

Consider `O=C1NC(NC2CCCCCC2)=N/C1=C\c1ccc2cnccc2c1` [Compound 57, (4Z)-2-(cycloheptylamino)-4-(6-isoquinolylmethylene)-1H-imidazol-5-one], for which, at DYRK1A, the IC50 is greater than 50 nM; the “Selectivity Class DYRK1A vs. CLK1” value is “III (ratio between 0.5 and 2 fold)”; the “Selectivity Class DYRK1A vs. DYRK1B” value is “III (ratio between 0.5 and 2 fold)”. The IC50 at CLK1 is greater than 50 nM.

Turning to `O=C1NC(NCC2CCCCC2)=N/C1=C\c1ccc2cnccc2c1` [Compound 58, (4Z)-2-(Cyclohexylmethylamino)-4-(6-isoquinolylmethylene)-1H-imidazol-5-one], at DYRK1A, the IC50 is greater than 50 nM; the “Selectivity Class DYRK1A vs. CLK1” value is “IV (ratio between 0.1 and 0.5 fold)”; the “Selectivity Class DYRK1A vs. DYRK1B” value was “III (ratio between 0.5 and 2 fold)”. Also, the IC50 on CLK1 was greater than 50 nM.

Consider `CC(C)C[C@H](CO)NC1=N/C(=C\c2ccc3cnccc3c2)C(=O)N1` [Compound 59, (4Z)-2-[[(1R)-1-(hydroxymethyl)-3-methyl-butyl]amino]-4-(6-isoquinolylmethylene)-1H-imidazol-5-one], for which, on DYRK1A, the IC50 was greater than 50 nM; the “Selectivity Class DYRK1A vs. CLK1” value is “III (ratio between 0.5 and 2 fold)”; the “Selectivity Class DYRK1A vs. DYRK1B” value is “III (ratio between 0.5 and 2 fold)”. In addition, the IC50 on CLK1 was greater than 50 nM.
